Here are results for eight molecules from US12403137B2, “Compounds and methods of use” (Tango Therapeutics, Inc., priority 2019, dated 2025).

Experiment [1] concerns the target T1, PRMT5 (Homo sapiens, UniProt O14744).
T1 construct: purchased Viva (custom protein)
In words: PRMT5 inhibition assay with SAM as cofactor. The following applies: against PRMT5 in the presence of SAM as cofactor. The experiment is classed as biochemical. The text has this:
(§1) The Ki values can be calculated from the IC50 values as described in the Examples section. As detailed in the Examples section, for the assay performed in the presence of SAM, IC50=Ki×1.5 (Ki=IC50/1.5). For the assay performed in the presence of MTA, IC50=Ki×13.5 (Ki=IC50/13.5). Column 6 indicates the ratio between the Ki of compounds in the presence of SAM and the Ki of compounds in the presence of MTA

Experiment [2] addresses T1, PRMT5. In words: PRMT5 inhibition assay with no cofactor. The experiment is classed as biochemical. Particulars: against PRMT5 with no cofactor; read-out: No Co-factor IC50.
Experiment [3] has as its target T1, PRMT5. In words: PRMT5 inhibition assay with MTA as cofactor. Particulars: for pIC50: against PRMT5 with MTA as cofactor; for SAM/MTA Ratio: ratio of Ki in the presence of SAM to Ki in the presence of MTA, Ki=IC50/1.5 (SAM), Ki=IC50/13.5 (MTA). The experiment is classed as biochemical.
Excerpt: as §1

Experiment [4] has as its system HAP1 MTAP-intact cell line. The experiment in a line: SDMA in-cell western assay, HAP1 MTAP-intact. The following applies: Homo sapiens. The experiment is classed as cell-based. In a few lines: (§2)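 IC50 values come from an SDMA in-cell western run in isogenic HAP1 cells, either MTAP-null or expressing endogenous MTAP. The intact-to-deleted IC50 ratio is used to score MTAP selectivity.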

Experiment [5] deals with HAP1 MTAP-deleted cell line. The experiment in a line: SDMA in-cell western assay, HAP1 MTAP-deleted. The experiment is classed as cell-based. Particulars: for pIC50: Homo sapiens, HAP1 MTAP-deleted (MTAP-null) cell line; for MTAP Intact/Deleted Ratio: IC50 ratio HAP1 MTAP-intact / HAP1 MTAP-deleted, >=3 fold considered MTAP-selective. In a few lines:
as §2

pIC50: −log10 of the molar value. Bounds are passed on as bounds.

T1 sequence (O14744 whole entry): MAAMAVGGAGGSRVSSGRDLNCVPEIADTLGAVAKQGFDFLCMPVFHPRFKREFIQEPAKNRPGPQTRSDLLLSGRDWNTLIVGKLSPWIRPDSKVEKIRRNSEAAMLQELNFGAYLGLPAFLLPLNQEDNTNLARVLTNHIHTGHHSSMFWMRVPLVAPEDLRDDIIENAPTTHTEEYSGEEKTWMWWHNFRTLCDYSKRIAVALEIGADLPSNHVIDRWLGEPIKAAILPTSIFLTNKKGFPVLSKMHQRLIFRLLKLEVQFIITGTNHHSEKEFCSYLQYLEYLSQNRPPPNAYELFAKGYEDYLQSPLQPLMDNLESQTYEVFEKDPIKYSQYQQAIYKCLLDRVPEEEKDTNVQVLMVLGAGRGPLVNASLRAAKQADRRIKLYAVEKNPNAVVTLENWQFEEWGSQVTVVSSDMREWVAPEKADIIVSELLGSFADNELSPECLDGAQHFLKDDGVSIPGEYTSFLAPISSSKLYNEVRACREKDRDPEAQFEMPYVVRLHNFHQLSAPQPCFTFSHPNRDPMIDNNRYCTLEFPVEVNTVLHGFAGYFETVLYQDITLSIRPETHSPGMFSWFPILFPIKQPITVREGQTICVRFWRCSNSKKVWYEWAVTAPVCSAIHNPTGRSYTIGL
T1 sequence (Q9BQA1 whole entry partner): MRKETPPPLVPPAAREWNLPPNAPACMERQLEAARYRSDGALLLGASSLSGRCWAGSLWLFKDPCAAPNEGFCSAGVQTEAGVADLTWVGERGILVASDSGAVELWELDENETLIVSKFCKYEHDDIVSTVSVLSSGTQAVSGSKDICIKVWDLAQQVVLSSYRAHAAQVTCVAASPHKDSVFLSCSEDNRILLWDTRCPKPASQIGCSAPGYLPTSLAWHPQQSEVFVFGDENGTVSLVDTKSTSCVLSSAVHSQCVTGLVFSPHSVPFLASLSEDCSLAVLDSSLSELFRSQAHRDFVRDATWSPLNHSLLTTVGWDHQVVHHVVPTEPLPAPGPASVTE

A word on the pIC50: it is the IC50 on a negative log10 scale, so that one unit is a factor of ten. `CCOc1nc(N2CCN(C(=O)OC)CC2)ccc1C(=O)NC[C@@H](O)[C@@H]1Cc2ccc(OCc3cnco3)cc2CN1` [Compound 16, methyl 4-(6-ethoxy-5-(((R)-2-hydroxy-2-((S)-7-(oxazol-5-ylmethoxy)-1,2,3,4-tetrahydroisoquinolin-3-yl)ethyl)carbamoyl)pyridin-2-yl)piperazine-1-carboxylate]: the pIC50 in experiment [1] was 6.30 to 7.30; in experiment [2], 6.30 to 7.30; in experiment [3], > 7.30; in experiment [4], 5.00 to 6.00; in experiment [5] it was > 6.00. In addition, the “SAM/MTA Ratio” value in experiment [3] is “A (a Ki ratio greater than or equal to 10 fold between the Ki in the presence of SAM and the Ki in the presence of MTA)”. The “MTAP Intact/Deleted Ratio” value in experiment [5] is “B* (an IC50 ratio greater than or equal to 3 fold but lower than 10 fold between the IC50 in the HAP1 MTAP-intact cell line and the HAP1 MTAP-deleted cell line)”.
For the molecule `CCOc1nc(N2CCN(C(=O)OC)CC2)ccc1C(=O)NC[C@@H](O)[C@@H]1Cc2ccc(OCc3ocnc3C)cc2CN1` [Compound 17, methyl 4-(6-ethoxy-5-(((R)-2-hydroxy-2-((S)-7-((4-methyloxazol-5-yl)methoxy)-1,2,3,4-tetrahydroisoquinolin-3-yl)ethyl)carbamoyl)pyridin-2-yl)piperazine-1-carboxylate], the negative logarithm of the IC50 (pIC50) is 6.30 to 7.30 in experiment [1]; 6.30 to 7.30 in experiment [2]; > 7.30 in experiment [3]; 5.00 to 6.00 in experiment [4]; > 6.00 in experiment [5]. Also, in experiment [3], the “SAM/MTA Ratio” value was “A (a Ki ratio greater than or equal to 10 fold between the Ki in the presence of SAM and the Ki in the presence of MTA)”. In addition, the “MTAP Intact/Deleted Ratio” value in experiment [5] is “A* (an IC50 ratio greater than or equal to 10 fold between the IC50 in the HAP1 MTAP-intact cell line and the HAP1 MTAP-deleted cell line)”.
With `CCOc1nc(N2CCN(C(=O)OC)CC2)ccc1C(=O)NC[C@@H](O)[C@@H]1Cc2ccc(OCc3ccnn3C)cc2CN1` [Compound 18, methyl 4-(6-ethoxy-5-(((R)-2-hydroxy-2-((S)-7-((1-methyl-1H-pyrazol-5-yl)methoxy)-1,2,3,4-tetrahydroisoquinolin-3-yl)ethyl)carbamoyl)pyridin-2-yl)piperazine-1-carboxylate], the negative logarithm of the IC50 (pIC50) was 6.30 to 7.30 in experiment [1]; 5.30 to 6.30 in experiment [2]; > 7.30 in experiment [3]; ≤ 5.00 in experiment [4]; > 6.00 in experiment [5]. Also, in experiment [3], the “SAM/MTA Ratio” value is “A (a Ki ratio greater than or equal to 10 fold between the Ki in the presence of SAM and the Ki in the presence of MTA)”. The “MTAP Intact/Deleted Ratio” value in experiment [5] is “A* (an IC50 ratio greater than or equal to 10 fold between the IC50 in the HAP1 MTAP-intact cell line and the HAP1 MTAP-deleted cell line)”.
`Cc1ncoc1COc1ccc2c(c1)CN[C@H]([C@H](O)CNC(=O)c1ccc3c(c1)CCN(C(=O)c1ccc(Br)cc1)C3)C2` [Compound 20, 2-(4-bromobenzoyl)-N—((R)-2-hydroxy-2-((S)-7-((4-methyloxazol-5-yl)methoxy)-1,2,3,4-tetrahydroisoquinolin-3-yl)ethyl)-1,2,3,4-tetrahydroisoquinoline-6-carboxamide]: the pIC50 was 6.30 to 7.30 in experiment [1]; 6.30 to 7.30 in experiment [2]; > 7.30 in experiment [3]; 5.00 to 6.00 in experiment [4]; > 6.00 in experiment [5]. The “SAM/MTA Ratio” value in experiment [3] is “A (a Ki ratio greater than or equal to 10 fold between the Ki in the presence of SAM and the Ki in the presence of MTA)”. Moreover, the “MTAP Intact/Deleted Ratio” value in experiment [5] is “A* (an IC50 ratio greater than or equal to 10 fold between the IC50 in the HAP1 MTAP-intact cell line and the HAP1 MTAP-deleted cell line)”.
With `COc1ccc(C(=O)N2CCc3cc(C(=O)NC[C@@H](O)[C@@H]4Cc5ccc(OCc6ocnc6C)cc5CN4)ccc3C2)cc1` [Compound 21, N—((R)-2-hydroxy-2-((S)-7-((4-methyloxazol-5-yl)methoxy)-1,2,3,4-tetrahydroisoquinolin-3-yl)ethyl)-2-(4-methoxybenzoyl)-1,2,3,4-tetrahydroisoquinoline-6-carboxamide], the negative-log IC50 (pIC50) in experiment [1] is 6.30 to 7.30; in experiment [2], 6.30 to 7.30; in experiment [3], > 7.30; in experiment [4], 5.00 to 6.00; in experiment [5], > 6.00. Further, in experiment [3], the “SAM/MTA Ratio” value is “A (a Ki ratio greater than or equal to 10 fold between the Ki in the presence of SAM and the Ki in the presence of MTA)”. Further, in experiment [5], the “MTAP Intact/Deleted Ratio” value is “A* (an IC50 ratio greater than or equal to 10 fold between the IC50 in the HAP1 MTAP-intact cell line and the HAP1 MTAP-deleted cell line)”.
Regarding `Cc1ncoc1COc1ccc2c(c1)CN[C@H]([C@H](O)CNC(=O)c1ccc(OC3CCN(Cc4ccncc4)CC3)cc1)C2` [Compound 23, N—((R)-2-hydroxy-2-((S)-7-((4-methyloxazol-5-yl)methoxy)-1,2,3,4-tetrahydroisoquinolin-3-yl)ethyl)-4-((1-(pyridin-4-ylmethyl)piperidin-4-yl)oxy)benzamide], the pIC50 in experiment [1] is 6.30 to 7.30; in experiment [2], 6.30 to 7.30; in experiment [3] it was > 7.30; in experiment [4], > 6.00; in experiment [5], > 6.00. For the same molecule, the “SAM/MTA Ratio” value in experiment [3] was “A (a Ki ratio greater than or equal to 10 fold between the Ki in the presence of SAM and the Ki in the presence of MTA)”. For the same molecule, in experiment [5], the “MTAP Intact/Deleted Ratio” value was “B* (an IC50 ratio greater than or equal to 3 fold but lower than 10 fold between the IC50 in the HAP1 MTAP-intact cell line and the HAP1 MTAP-deleted cell line)”.
For the molecule `CCN(C)c1cc(C(=O)NC[C@@H](O)[C@@H]2Cc3ccc(OCc4ocnc4C)cc3CN2)cc(NC2CCC2)n1` [Compound 24, 2-(cyclobutylamino)-6-(ethyl(methyl)amino)-N—((R)-2-hydroxy-2-((S)-7-((4-methyloxazol-5-yl)methoxy)-1,2,3,4-tetrahydroisoquinolin-3-yl)ethyl)isonicotinamide], the pIC50 in experiment [1] was 6.30 to 7.30; in experiment [2], 6.30 to 7.30; in experiment [3], 6.30 to 7.30; in experiment [4], ≤ 5.00; in experiment [5] it was > 6.00. The “SAM/MTA Ratio” value in experiment [3] was “A (a Ki ratio greater than or equal to 10 fold between the Ki in the presence of SAM and the Ki in the presence of MTA)”. Moreover, the “MTAP Intact/Deleted Ratio” value in experiment [5] was “A* (an IC50 ratio greater than or equal to 10 fold between the IC50 in the HAP1 MTAP-intact cell line and the HAP1 MTAP-deleted cell line)”.
As for `Cc1ncoc1COc1ccc2c(c1)CN[C@H]([C@H](O)CNC(=O)c1cccc(-c3ccccn3)c1)C2` [Compound 25, N—((R)-2-hydroxy-2-((S)-7-((4-methyloxazol-5-yl)methoxy)-1,2,3,4-tetrahydroisoquinolin-3-yl)ethyl)-3-(pyridin-2-yl)benzamide], the pIC50 was 6.30 to 7.30 in experiment [1]; ≤ 5.30 in experiment [2]; 6.30 to 7.30 in experiment [3]; ≤ 5.00 in experiment [4]; 5.00 to 6.00 in experiment [5]. In experiment [3], the “SAM/MTA Ratio” value was “A (a Ki ratio greater than or equal to 10 fold between the Ki in the presence of SAM and the Ki in the presence of MTA)”. Moreover, the “MTAP Intact/Deleted Ratio” value in experiment [5] is “C* (an IC50 ratio of less than 3 fold between the IC50 in the HAP1 MTAP-intact cell line and the HAP1 MTAP-deleted cell line)”.
